The values below come from patent US20260265238A1, “COMPOUNDS AND PHARMACEUTICAL COMPOSITIONS THAT DEGRADE SWI/SNF-RELATED MATRIX-ASSOCIATED ACTIN-DEPENDENT REGULATOR OF CHROMATIN SUBFAMILY A” (Plexium, Inc., priority 2023, published 2026).

Some results are limits rather than exact numbers.

In test [1] the target is T1, SMARCA2-HiBiT HeLa cells (protein which is expressed from the SMARCA2 gene) (Homo sapiens, UniProt P51531).
T1 construct: protein which is expressed from the SMARCA2 and SMARCA4 genes; host or cells: HeLa (SMARCA2-HiBiT engineered line)
As to the kind of experiment: SMARCA2 degradation assay (HiBiT-fusion HeLa cell line, 24 h, luminescence). It counts as cell-based. The procedure, abridged:
(§1)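 HiBiT-fusion HeLa lines, 8,000 cells/well, overnight attachment; cpd 10-pt series (typically 10 μM–300 pM), 24 h, 37° C. Lysis with LgBiT + HiBiT substrate, 10 min shaking at RT, luminescence read. DC50 from dose-response fit; % degradation also scored at 1 μM.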

Test [2] deals with T2, SMARCA4-HiBiT HeLa cells (protein which is expressed from the SMARCA4 gene) (Homo sapiens, UniProt P51532).
T2 construct: protein which is expressed from the SMARCA2 and SMARCA4 genes; host or cells: HeLa (SMARCA4-HiBiT engineered line)
The experiment in a line: SMARCA4 degradation assay (HiBiT-fusion HeLa cell line, 24 h, luminescence). In kind it is cell-based. In short, it runs like this: as §1
(The HiBiT peptide binds its large partner to form an active luciferase.)

T1 sequence (P51531 whole entry): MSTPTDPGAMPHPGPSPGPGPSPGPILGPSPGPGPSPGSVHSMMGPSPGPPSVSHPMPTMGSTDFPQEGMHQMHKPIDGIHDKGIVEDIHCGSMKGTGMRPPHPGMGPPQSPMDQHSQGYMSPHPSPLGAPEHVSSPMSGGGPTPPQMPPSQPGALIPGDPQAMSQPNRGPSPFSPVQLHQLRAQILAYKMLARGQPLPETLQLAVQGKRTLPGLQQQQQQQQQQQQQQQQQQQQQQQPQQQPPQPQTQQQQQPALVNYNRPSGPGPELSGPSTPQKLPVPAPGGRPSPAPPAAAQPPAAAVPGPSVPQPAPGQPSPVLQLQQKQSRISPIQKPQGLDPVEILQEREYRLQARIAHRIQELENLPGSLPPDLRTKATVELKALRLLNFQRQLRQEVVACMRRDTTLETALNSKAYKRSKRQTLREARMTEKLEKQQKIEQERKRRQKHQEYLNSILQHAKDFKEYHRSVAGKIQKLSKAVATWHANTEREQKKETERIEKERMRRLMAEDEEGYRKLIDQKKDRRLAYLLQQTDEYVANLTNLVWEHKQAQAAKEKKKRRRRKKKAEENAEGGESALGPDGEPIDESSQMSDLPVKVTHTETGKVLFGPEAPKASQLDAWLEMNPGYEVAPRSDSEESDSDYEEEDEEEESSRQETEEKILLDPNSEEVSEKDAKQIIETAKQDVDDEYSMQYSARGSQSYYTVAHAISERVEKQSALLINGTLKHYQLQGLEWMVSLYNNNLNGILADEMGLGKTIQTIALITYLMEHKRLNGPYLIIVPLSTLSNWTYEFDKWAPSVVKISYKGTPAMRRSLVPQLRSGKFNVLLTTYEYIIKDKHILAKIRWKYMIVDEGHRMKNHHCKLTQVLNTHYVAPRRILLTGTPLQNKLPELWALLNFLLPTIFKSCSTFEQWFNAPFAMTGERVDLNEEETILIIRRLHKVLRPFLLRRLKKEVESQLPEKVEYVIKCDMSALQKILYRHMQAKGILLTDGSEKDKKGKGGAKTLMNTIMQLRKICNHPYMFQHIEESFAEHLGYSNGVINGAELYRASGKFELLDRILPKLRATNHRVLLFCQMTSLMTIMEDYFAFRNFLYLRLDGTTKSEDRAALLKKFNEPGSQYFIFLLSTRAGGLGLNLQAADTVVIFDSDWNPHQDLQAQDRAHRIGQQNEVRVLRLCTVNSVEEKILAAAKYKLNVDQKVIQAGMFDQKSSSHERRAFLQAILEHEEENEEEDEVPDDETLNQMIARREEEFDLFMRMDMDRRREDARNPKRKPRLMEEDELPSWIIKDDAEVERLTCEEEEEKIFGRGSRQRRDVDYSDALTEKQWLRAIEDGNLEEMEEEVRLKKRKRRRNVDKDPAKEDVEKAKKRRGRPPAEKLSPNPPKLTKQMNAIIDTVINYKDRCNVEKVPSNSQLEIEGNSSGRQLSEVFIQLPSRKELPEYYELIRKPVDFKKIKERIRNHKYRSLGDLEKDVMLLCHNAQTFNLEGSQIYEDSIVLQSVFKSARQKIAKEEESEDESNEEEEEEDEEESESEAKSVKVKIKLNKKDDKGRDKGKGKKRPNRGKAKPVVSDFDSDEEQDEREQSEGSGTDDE
T2 sequence (P51532 whole entry): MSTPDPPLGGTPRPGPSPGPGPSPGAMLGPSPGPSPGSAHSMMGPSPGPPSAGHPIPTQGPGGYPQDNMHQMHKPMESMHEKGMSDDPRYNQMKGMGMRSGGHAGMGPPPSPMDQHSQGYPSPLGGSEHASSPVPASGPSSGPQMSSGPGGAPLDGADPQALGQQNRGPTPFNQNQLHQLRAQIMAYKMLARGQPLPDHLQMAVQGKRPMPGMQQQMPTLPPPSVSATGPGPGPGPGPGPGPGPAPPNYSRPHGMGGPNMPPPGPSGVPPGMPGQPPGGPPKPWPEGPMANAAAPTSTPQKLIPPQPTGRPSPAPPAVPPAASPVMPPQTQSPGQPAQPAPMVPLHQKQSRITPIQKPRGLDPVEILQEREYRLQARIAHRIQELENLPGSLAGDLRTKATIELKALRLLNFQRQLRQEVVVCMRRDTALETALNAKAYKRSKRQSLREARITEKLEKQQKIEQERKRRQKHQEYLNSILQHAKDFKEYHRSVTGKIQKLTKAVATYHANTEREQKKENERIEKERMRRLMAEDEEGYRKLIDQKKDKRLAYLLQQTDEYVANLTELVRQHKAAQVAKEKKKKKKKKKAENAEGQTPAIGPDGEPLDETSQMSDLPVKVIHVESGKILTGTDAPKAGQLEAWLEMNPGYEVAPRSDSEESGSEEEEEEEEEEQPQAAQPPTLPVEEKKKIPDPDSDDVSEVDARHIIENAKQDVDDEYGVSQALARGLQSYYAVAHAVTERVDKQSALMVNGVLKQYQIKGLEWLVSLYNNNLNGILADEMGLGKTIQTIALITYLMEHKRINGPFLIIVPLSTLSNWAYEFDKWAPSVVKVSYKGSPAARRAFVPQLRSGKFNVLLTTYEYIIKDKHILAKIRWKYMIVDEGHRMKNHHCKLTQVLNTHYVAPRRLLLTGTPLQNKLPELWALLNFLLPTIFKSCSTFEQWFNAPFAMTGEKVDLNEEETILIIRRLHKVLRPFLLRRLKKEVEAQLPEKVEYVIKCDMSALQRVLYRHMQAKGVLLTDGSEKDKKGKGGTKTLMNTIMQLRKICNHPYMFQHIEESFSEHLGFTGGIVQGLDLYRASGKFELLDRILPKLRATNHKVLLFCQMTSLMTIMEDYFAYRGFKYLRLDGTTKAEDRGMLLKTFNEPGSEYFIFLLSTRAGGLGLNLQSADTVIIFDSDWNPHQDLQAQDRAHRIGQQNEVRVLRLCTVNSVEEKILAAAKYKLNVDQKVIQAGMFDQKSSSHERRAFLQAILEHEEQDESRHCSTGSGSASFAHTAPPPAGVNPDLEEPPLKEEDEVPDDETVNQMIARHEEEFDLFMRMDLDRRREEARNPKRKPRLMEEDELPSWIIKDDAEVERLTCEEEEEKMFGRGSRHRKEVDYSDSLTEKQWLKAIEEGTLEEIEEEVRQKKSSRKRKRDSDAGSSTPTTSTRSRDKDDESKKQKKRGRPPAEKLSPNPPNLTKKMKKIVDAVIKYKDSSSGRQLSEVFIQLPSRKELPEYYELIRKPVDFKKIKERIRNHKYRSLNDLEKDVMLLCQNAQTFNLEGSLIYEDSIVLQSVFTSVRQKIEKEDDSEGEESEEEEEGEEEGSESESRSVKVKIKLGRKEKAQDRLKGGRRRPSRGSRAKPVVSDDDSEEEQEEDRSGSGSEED

Consider `Nc1nnc(-c2ccccc2O)cc1N1CCCN(c2ccnc(C#CCNc3ncco3)n2)CC1` [Compound P-15, 2-(6-amino-5-(4-(2-(3-(oxazol-2-ylamino)prop-1-yn-1-yl)pyrimidin-4-yl)-1,4-diazepan-1-yl)pyridazin-3-yl)phenol], for which the DC50 in test [1] and in test [2] was 500 to 5000 nM in each case. In test [1] (@ 1 μM), the “SMARCA2 % Degradation @ 1 μM” value is recorded as “++ (++=30-70%)”. Also, the inhibition at 1 µM in test [2] (@ 1 μM) was under 30%.
On to `C[C@@H]1CN(CC#Cc2nccc(N3CCCN(c4cc(-c5ccccc5O)nnc4N)CC3)n2)C[C@@H](C)O1` [Compound P-356, 0-{5-[4-(2-{3-[(2R,6R)-2,6-dimethyl-4-morpholinyl]-1-propynyl}-4-pyrimidinyl)-1,4-diazepan-1-yl]-6-amino-3-pyridazinyl}phenol], for which the DC50 in test [1] and in test [2] was 500 to 5000 nM in each case. In addition, in test [1] (@ 1 μM), the “SMARCA2 % Degradation @ 1 μM” value is “++ (++=30-70%)”. Moreover, the inhibition at 1 µM in test [2] (@ 1 μM) was under 30%.
Take `Nc1nnc(-c2ccccc2O)cc1N1CCN(c2ccnc(C#CCNC(=O)c3cc4ccc(F)cc4o3)n2)CC1` [Compound P-52, N-(3-(4-(4-(3-amino-6-(2-hydroxyphenyl)pyridazin-4-yl)piperazin-1-yl)pyrimidin-2-yl)prop-2-yn-1-yl)-6-fluorobenzofuran-2-carboxamide]: the DC50 in test [1] and in test [2] was 50 to 500 nM each time. Moreover, the “SMARCA2 % Degradation @ 1 μM” value in test [1] (@ 1 μM) is on record as “++ (++=30-70%)”. For the same compound, the inhibition at 1 µM in test [2] (@ 1 μM) lay within 30 to 70%.
Take `Nc1nnc(-c2ccccc2O)cc1N1CCCN(c2ccnc(C#CCN3CCS(=O)(=O)CC3)n2)CC1` [Compound P-137, 4-(3-(4-(4-(3-amino-6-(2-hydroxyphenyl)pyridazin-4-yl)-1,4-diazepan-1-yl)pyrimidin-2-yl)prop-2-yn-1-yl)thiomorpholine 1,1-dioxide]: the DC50 in test [1] and in test [2] was 500 to 5000 nM each time. In test [1] (@ 1 μM), the “SMARCA2 % Degradation @ 1 μM” value is recorded as “++ (++=30-70%)”. This compound also came in with an inhibition at 1 µM in test [2] (@ 1 μM) of 30 to 70%.
Regarding `C[C@@H]1CCN(c2cc(-c3ccccc3O)nnc2N)CCN1c1ccnc(C#CCn2cccc2)n1` [Compound P-191, o-{5-[(R)-5-methyl-4-{2-[3-(1-pyrrolyl)-1-propynyl]-4-pyrimidinyl}-1,4-diazepan-1-yl]-6-amino-3-pyridaziny1}phenol], the 50% degradation concentration (DC50) in test [1] and in test [2] was 50 to 500 nM in each case. Besides, the “SMARCA2 % Degradation @ 1 μM” value in test [1] (@ 1 μM) is reported as “++ (++=30-70%)”. The compound also came in with an inhibition at 1 µM in test [2] (@ 1 μM) of 30 to 70%.
In the case of `CNCC#Cc1nccc(N2C[C@H]3C[C@@H]2CN3c2cc(-c3ccccc3O)nnc2N)n1` [Compound P-295, 0-{5-[(1R,4R)-5-{2-[3-(methylamino)-1-propynyl]-4-pyrimidinyl}-2,5-diazabicyclo[2.2.1]hept-2-y1]-6-amino-3-pyridazinyl} phenol], the DC50 in test [1] and in test [2] was 50 to 500 nM each time. The “SMARCA2 % Degradation @ 1 μM” value in test [1] (@ 1 μM) is on record as “++ (++=30-70%)”. Besides, the inhibition at 1 µM in test [2] (@ 1 μM) was under 30%.
Consider `Cn1ccc(NCC#Cc2nccc(N3C4CCC3CN(c3cc(-c5ccccc5O)nnc3N)C4)n2)n1` [Compound P-287], for which the DC50 in test [1] and in test [2] was 50 to 500 nM in each case. Besides, the “SMARCA2 % Degradation @ 1 μM” value in test [1] (@ 1 μM) is given as “++ (++=30-70%)”. In test [2] (@ 1 μM), the inhibition at 1 µM fell in the range of 30 to 70%.
As for `CN(C)CC#Cc1nccc(N2CC3CC(Oc4cc(-c5ccccc5O)nnc4N)CC3C2)n1` (centres unmarked) [Compound P-222, o-[6-amino-5-(3-{2-[3-(dimethylamino)-1-propynyl]-4-pyrimidinyl}-3-azabicyclo[3.3.0]oct-7-yloxy)-3-pyridazinyl]phenol], the DC50 in test [1] and in test [2] was 50 to 500 nM throughout. Moreover, the “SMARCA2 % Degradation @ 1 μM” value in test [1] (@ 1 μM) is “+++ (+++=>70%)”. The same compound showed an inhibition at 1 µM in test [2] (@ 1 μM) of over 70%.
With `C[C@@H]1CCN(c2cc(-c3ccccc3O)nnc2N)CCN1c1ccnc(C#CCN2CCOCC2)n1` [Compound P-334, 0-(5-{(R)-5-methyl-4-[2-(3-morpholino-1-propynyl)-4-pyrimidinyl]-1,4-diazepan-1-yl}-6-amino-3-pyridazinyl)phenol], the DC50 in test [1] and in test [2] was 50 to 500 nM each time. In addition, the “SMARCA2 % Degradation @ 1 μM” value in test [1] (@ 1 μM) is listed as “++ (++=30-70%)”. This compound also displayed an inhibition at 1 µM in test [2] (@ 1 μM) of under 30%.
For `C[C@@H]1CCN(c2cc(-c3ccccc3O)nnc2N)CCN1c1ccnc(C#CCn2ccnc2)c1` [Compound P-428, 0-{5-[(R)-4-{2-[3-(1-imidazolyl)-1-propynyl]-4-pyridyl}-5-methyl-1,4-diazepan-1-yl]-6-amino-3-pyridazinyl}phenol], the DC50 in test [1] and in test [2] was 50 to 500 nM each time. Further, the “SMARCA2 % Degradation @ 1 μM” value in test [1] (1 μM) is reported as “+++ (+++=>70%)”. This compound also returned an inhibition at 1 µM in test [2] (1 μM) of over 70%.
For the compound `CC(C)c1cc(C(C)C)n(CC#Cc2nccc(N3CCCN(c4cc(-c5ccccc5O)nnc4N)CC3)n2)n1` [Compound P-104, 2-(6-amino-5-(4-(2-(3-(3,5-diisopropyl-1H-pyrazol-1-yl)prop-1-yn-1-yl)pyrimidin-4-yl)-1,4-diazepan-1-yl)pyridazin-3-yl)phenol], the DC50 in test [1] was 50 to 500 nM; in test [2], 500 to 5000 nM. Moreover, the “SMARCA2 % Degradation @ 1 μM” value in test [1] (@ 1 μM) was “+++ (+++=>70%)”. In test [2] (@ 1 μM), this compound had an inhibition at 1 µM of 30 to 70%.
On the same counts, the results for `C[C@@H]1CCN(c2cc(-c3ccccc3O)nnc2N)CCN1c1ccnc(C#CCN2CCC(C#N)C2)n1` (some centres unmarked) [Compound P-245] are 50 to 500 nM, 50 to 500 nM, “+++ (+++=>70%)” and 30 to 70%.
`CC(C)(C)OC(=O)NCC#Cc1nccc(N2CC3=C(C2)CN(c2cc(-c4ccccc4O)nnc2N)C3)n1` [Compound P-259, 3-(4-{7-[3-amino-6-(o-hydroxyphenyl)-4-pyridaziny1]-3,7-diazabicyclo[3.3.0]oct-1(5)-en-3-y1}-2-pyrimidinyl)-2-propynylamino-tert-butylformylate]: the DC50 in test [1] and in test [2] was under 50 nM throughout. Moreover, the “SMARCA2 % Degradation @ 1 μM” value in test [1] (@ 1 μM) is given as “++ (++=30-70%)”. The compound further yielded an inhibition at 1 µM in test [2] (@ 1 μM) of 30 to 70%.
Regarding `CC1(F)CCN(CC#Cc2nccc(N3C4CCC3CN(c3cc(-c5ccccc5O)nnc3N)C4)n2)C1` (centres unmarked) [Compound P-194, o-[6-amino-5-(8-{2-[3-(3-fluoro-3-methyl-1-pyrrolidinyl)-1-propynyl]-4-pyrimidinyl}-3,8-diazabicyclo[3.2.1]oct-3-yl)-3-pyridazinyl]phenol], the DC50 in test [1] and in test [2] was under 50 nM throughout. Moreover, the “SMARCA2 % Degradation @ 1 μM” value in test [1] (@ 1 μM) was “++ (++=30-70%)”. Also, the inhibition at 1 µM in test [2] (@ 1 μM) lay within 30 to 70%.
For `CN(CC#Cc1nccc(N2CCCN(c3cc(-c4ccccc4O)nnc3N)CC2)n1)c1nc2ccccc2o1` [Compound P-107, 2-(6-amino-5-(4-(2-(3-(benzo[d]oxazol-2-yl(methyl)amino)prop-1-yn-1-yl)pyrimidin-4-yl)-1,4-diazepan-1-yl)pyridazin-3-yl)phenol], the DC50 in test [1] and in test [2] was under 50 nM each time. Further, the “SMARCA2 % Degradation @ 1 μM” value in test [1] (@ 1 μM) is recorded as “+++ (+++=>70%)”. This compound also came in with an inhibition at 1 µM in test [2] (@ 1 μM) of over 70%.
Consider `N#CC1CCN(CC#Cc2nccc(N3CCCN(c4cc(-c5ccccc5O)nnc4N)CC3)n2)CC1` [Compound P-357, 1-[3-(4-{4-[3-amino-6-(o-hydroxyphenyl)-4-pyridazinyl]-1,4-diazepan-1-yl}-2-pyrimidinyl)-2-propynyl]-4-piperidinecarbonitrile], for which the DC50 in test [1] was in the range of 50 to 500 nM; in test [2] it was 500 to 5000 nM. For the same compound, the “SMARCA2 % Degradation @ 1 μM” value in test [1] (@ 1 μM) was “++ (++=30-70%)”. In test [2] (@ 1 μM), this compound showed an inhibition at 1 µM of 30 to 70%.
On the same counts, the results for `Nc1nnc(-c2ccccc2O)cc1N1CCN(c2ccnc(C#CCNC(=O)c3noc4ccccc34)n2)CC1` [Compound P-54, N-(3-(4-(4-(3-amino-6-(2-hydroxyphenyl)pyridazin-4-yl)piperazin-1-yl)pyrimidin-2-yl)prop-2-yn-1-yl)benzo[d]isoxazole-3-carboxamide] are 50 to 500 nM, 50 to 500 nM, “++ (++=30-70%)” and 30 to 70%.
For `CC(C#Cc1nc(N2CCN(c3cc(-c4ccccc4O)nnc3N)CC[C@H]2C)ccc1C#N)N(C)C` (stereo partly drawn) [Compound P-407, 6-{(R)-4-[3-amino-6-(o-hydroxyphenyl)-4-pyridazinyl]-7-methyl-1,4-diazepan-1-yl}-2-[3-(dimethylamino)-1-butynyl]nicotinonitrile], the DC50 in test [1] and in test [2] was under 50 nM throughout. The “SMARCA2 % Degradation @ 1 μM” value in test [1] (1 μM) is “++ (++=30-70%)”. For the same compound, the inhibition at 1 µM in test [2] (1 μM) was under 30%.
As to `Nc1nnc(-c2ccccc2O)cc1N1CCC2(CCCN(c3ccnc(C#CCNC(=O)c4cc5n(n4)CCC5)n3)C2)CC1` [Compound P-129, N-(3-(4-(9-(3-amino-6-(2-hydroxyphenyl)pyridazin-4-yl)-2,9-diazaspiro[5.5]undecan-2-yl)pyrimidin-2-yl)prop-2-yn-1-yl)-5,6-dihydro-4H-pyrrolo[1,2-b]pyrazole-2-carboxamide], the DC50 in test [1] and in test [2] was 50 to 500 nM each time. Also, the “SMARCA2 % Degradation @ 1 μM” value in test [1] (@ 1 μM) is recorded as “++ (++=30-70%)”. Also, the inhibition at 1 µM in test [2] (@ 1 μM) fell in the range of 30 to 70%.
As for `Cn1nc(C(=O)NCC#Cc2nccc(N3CCN(c4cc(-c5ccccc5O)nnc4N)CC3)n2)cc1C1CC1` [Compound P-6, N-[3-(4-{4-[3-amino-6-(2-hydroxyphenyl)pyridazin-4-yl]piperazin-1-y1}pyrimidin-2-yl)prop-2-yn-1-yl]-5-cyclopropyl-1-methyl-1H-pyrazole-3-carboxamide], the DC50 in test [1] is 50 to 500 nM; in test [2], under 50 nM. Besides, the “SMARCA2 % Degradation @ 1 μM” value in test [1] (@ 1 μM) is reported as “++ (++=30-70%)”. The inhibition at 1 µM in test [2] (@ 1 μM) lay within 30 to 70%.

As usually defined, the DC50 is the midpoint of the concentration-degradation curve. A high value points to a less potent degrader. By inhibition is commonly meant the drop in the measured response relative to a control, in per cent.
